Measured values published in patent US7301033B2, “PPAR-activating compound” (Kowa Co., Ltd., priority 2005, dated 2007).
Blank lines part the entries; values can stand above or below the molecule they belong to.

Assays:
Assay type in all cases: cell-based
human PPARδ = target: T1, human PPARδ (Homo sapiens, UniProt Q03181); test: Gal4-human PPARδ chimera luciferase transfection assay in COS cells; conditions: compound added at 1 μM, luciferase activity with GW501516 1 μM given as 10.0, 16 hours
T1 construct: with 137th to 441st amino acids of human PPARδ; expressed in transfected cells; host or cells: COS cells (African green monkey kidney)
T1 sequence (Q03181 137-441): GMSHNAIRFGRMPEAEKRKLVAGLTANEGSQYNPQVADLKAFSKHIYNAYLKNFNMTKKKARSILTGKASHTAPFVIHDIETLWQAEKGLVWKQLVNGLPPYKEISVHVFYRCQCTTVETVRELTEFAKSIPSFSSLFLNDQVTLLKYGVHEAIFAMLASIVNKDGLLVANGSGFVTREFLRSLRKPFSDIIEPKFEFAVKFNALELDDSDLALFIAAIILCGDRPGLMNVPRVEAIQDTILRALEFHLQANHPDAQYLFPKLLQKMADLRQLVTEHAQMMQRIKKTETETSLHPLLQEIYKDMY
Experimental: (§1) The PPAR receptor-activating effect of the compound of the present invention represented by the formula (1) was measured by a method described below (Proc. Natl. Acad. Sci., 92, pp 7297-7301, 1995; Journal of Lipid Research, 40, pp 2099-2110, 1999; and Proc. Natl. Acad. Sci, 98, pp 5306-5311, 2001).
(§2) All the transfection assays were conducted using African green monkey kidney-derived cell line COS cells. The COS cells were cultured at 5% CO2 concentration using a DMEM medium containing 10% fetal bovine serum, glutamic acid, and an antibiotic as a culture solution.
(§3) Gal4-human PPARs chimeric constructs which were fused the DNA-binding region of yeast transcription factor Gal4 with the ligand-binding region of human PPARs were used as an expression vector. A chimera where 1st to 147th amino acids of the Gal4 transcription factor were fused with 166th to 467th amino acids of human PPARα, with 182nd to 505th amino acids of human PPARγ2, or with 137th to 441st amino acids of human PPARδ was used as the chimera for each isoform. A reporter vector used was firefly luciferase whose promoter region contains five Gal4 recognition sequences. The plasmids were transfected into the cells by a method using Lipofectamine. In addition, a β-galactosidase expression vector was used as an internal standard.
(§4) After the transfection into the cells, the medium was substituted with a DMEM medium (containing 0.2% serum) supplemented with the compound, in which the cells were then cultured for additional 16 hours. Thereafter, luciferase activity and β-galactosidase activity in the cell lysate were measured.
(§5) In the present experiment, dimethyl sulfoxide (DMSO) was used in the dissolution and dilution of the compound. When the cells were treated, the DMSO concentration in the DMEM medium (containing 0.2% serum) was adjusted to 0.1%.

human PPARγ2 = target: T2, human PPARγ2 (Homo sapiens, UniProt P37231); test: Gal4-human PPARγ2 chimera luciferase transfection assay in COS cells; conditions: compound added at 1 μM, luciferase activity with rosiglitazone 1 μM given as 10.0, 16 hours
T2 construct: with 182nd to 505th amino acids of human PPARγ2; expressed in transfected cells; host or cells: COS cells (African green monkey kidney)
T2 sequence (P37231 182-505): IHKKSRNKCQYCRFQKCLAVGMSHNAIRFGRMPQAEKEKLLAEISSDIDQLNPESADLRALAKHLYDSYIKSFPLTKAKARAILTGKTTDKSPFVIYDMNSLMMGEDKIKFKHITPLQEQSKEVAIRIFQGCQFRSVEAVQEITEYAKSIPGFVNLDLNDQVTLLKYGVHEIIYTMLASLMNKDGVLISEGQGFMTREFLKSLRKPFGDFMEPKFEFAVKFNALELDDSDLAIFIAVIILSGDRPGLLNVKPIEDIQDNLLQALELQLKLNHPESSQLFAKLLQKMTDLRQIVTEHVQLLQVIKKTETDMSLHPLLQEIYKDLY
Experimental: as §1, §2, §3, §4, §5

human PPARα = target: T3, human PPARα (Homo sapiens, UniProt Q07869); test: Gal4-human PPARα chimera luciferase transfection assay in COS cells; conditions: compound added at 1 μM, luciferase activity with WY14643 10 μM given as 10.0, 16 hours
T3 construct: 166th to 467th amino acids of human PPARα; expressed in transfected cells; host or cells: COS cells (African green monkey kidney)
T3 sequence (Q07869 166-467): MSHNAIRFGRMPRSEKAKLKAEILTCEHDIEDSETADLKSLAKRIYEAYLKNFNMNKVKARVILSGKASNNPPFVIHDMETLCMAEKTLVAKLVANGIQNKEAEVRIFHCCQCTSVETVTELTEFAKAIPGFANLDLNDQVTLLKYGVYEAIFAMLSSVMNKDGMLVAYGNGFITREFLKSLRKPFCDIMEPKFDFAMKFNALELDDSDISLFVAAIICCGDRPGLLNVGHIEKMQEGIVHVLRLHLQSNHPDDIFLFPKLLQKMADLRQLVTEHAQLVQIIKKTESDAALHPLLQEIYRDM
Experimental: as §1, §2, §3, §4, §5

hPPAR; Relative activity δ (human PPARδ): 0.1
hPPAR; Relative activity γ (human PPARγ2): 6.2
hPPAR; Relative activity α (human PPARα): 15.2
Structure (SMILES): CCCCCCCCN(CCOc1ccccc1C(=O)O)c1nc2ccccc2o1 [Example 13, 2-[2-[N-(Benzoxazol-2-yl)-N-n-octyl]aminoethoxy]benzoic acid]

hPPAR; Relative activity δ (human PPARδ): 0.0
hPPAR; Relative activity γ (human PPARγ2): 2.4
hPPAR; Relative activity α (human PPARα): 13.1
Structure (SMILES): O=C(O)c1ccccc1SCCCCCCN(Cc1ccc(Cl)cc1)c1nc2ccccc2o1 [Example 106, 2-[6-[N-(Benzoxazol-2-yl)-N-4-chlorobenzyl]aminohexylthio]benzoic acid]

hPPAR; Relative activity δ (human PPARδ): 0.2
hPPAR; Relative activity γ (human PPARγ2): 1.1
hPPAR; Relative activity α (human PPARα): 11.2
Structure (SMILES): Cc1c(CN(CCSc2ccccc2C(=O)O)c2nc3ccccc3o2)cccc1[N+](=O)[O-] [Example 73, 2-[2-[N-(Benzoxazol-2-yl)-N-(2-methyl-3-nitrobenzyl) ]aminoethylthio]benzoic acid]

hPPAR; Relative activity δ (human PPARδ): 0.8
hPPAR; Relative activity γ (human PPARγ2): 2.7
hPPAR; Relative activity α (human PPARα): 18.7
Structure (SMILES): O=C(O)c1ccccc1SCCCCCN(CCCc1ccccc1)c1nc2ccccc2o1 [Example 104, 2-[5-[N-(BenzoxazoI-2-yl)-N-3-phenylpropyl]aminopentylthio]benzoic acid]

hPPAR; Relative activity δ (human PPARδ): 0.6
hPPAR; Relative activity γ (human PPARγ2): 1.7
hPPAR; Relative activity α (human PPARα): 13.5
Structure (SMILES): CCCCCN(CCCCCSc1ccccc1C(=O)O)c1nc2ccccc2o1 [Example 72, 2-[5-[N-(Benzoxazol-2-yl)-N-n-pentyl]aminopentylthio]benzoic acid]

hPPAR; Relative activity δ (human PPARδ): 0.2
hPPAR; Relative activity γ (human PPARγ2): 1.7
hPPAR; Relative activity α (human PPARα): 20.2
Structure (SMILES): CN(CCCCCSc1ccccc1C(=O)O)c1nc2ccccc2o1 [Example 100, 2-[5-[N-(Benzoxazol-2-yl)-N-methyl]aminopentylthio]benzoic acid]

hPPAR; Relative activity δ (human PPARδ): 0.2
hPPAR; Relative activity γ (human PPARγ2): 1.6
hPPAR; Relative activity α (human PPARα): 17.8
Structure (SMILES): O=C(O)c1ccccc1SCCN(CCCOc1ccccc1)c1nc2ccccc2o1 [Example 80, 2-[2-[N-(Benzoxazol-2-yl)-N-3-phenoxypropyl]aminoethylthio]benzoic acid]

More lines, now with the values behind:

Structure (SMILES): CCCCCCCCN(CCCOc1ccccc1C(=O)O)c1nc2ccccc2o1 [Example 27, 2-[3-[N-(Benzoxazol-2-yl)-N-n-octyl]aminopropoxy]benzoic acid]
hPPAR; Relative activity δ (human PPARδ): 0.1
hPPAR; Relative activity γ (human PPARγ2): 1.9
hPPAR; Relative activity α (human PPARα): 13.7

Structure (SMILES): CCN(CCCCSc1ccccc1C(=O)O)c1nc2ccccc2s1 [Example 108, 2-[4-[N-(Benzothiazol-2-yl)-N-ethyl]aminobutylthio]benzoic acid]
hPPAR; Relative activity δ (human PPARδ): 0.2
hPPAR; Relative activity γ (human PPARγ2): 1.4
hPPAR; Relative activity α (human PPARα): 16.2

Structure (SMILES): O=C(O)c1cccc(OCCCN(CCOc2ccc(Cl)cc2)c2nc3ccccc3o2)c1 [Example 6, 3-[3-[N-(Benzoxazol-2-yl)-N-2-(4-chlorophenoxy)ethyl]aminopropoxy]benzoic acid]
hPPAR; Relative activity δ (human PPARδ): 0.3
hPPAR; Relative activity γ (human PPARγ2): 1.2
hPPAR; Relative activity α (human PPARα): 17.3

Structure (SMILES): CCCCCCCCN(CCCOc1cccc(C(=O)O)c1)c1nc2ccccc2o1 [Example 20, 3-[3-[N-(Benzoxazol-2-yl)-N-n-octyl]aminopropoxy]benzoic acid]
hPPAR; Relative activity δ (human PPARδ): 0.2
hPPAR; Relative activity γ (human PPARγ2): 1.5
hPPAR; Relative activity α (human PPARα): 21.7

Structure (SMILES): O=C(O)c1cccc(OCCCCN(CCCOc2ccccc2)c2nc3ccccc3o2)c1 [Example 48, 3-[4-[N-(Benzoxazol-2-yl)-N-3-phenoxypropyl]aminobutoxy]benzoic acid]
hPPAR; Relative activity δ (human PPARδ): 0.2
hPPAR; Relative activity γ (human PPARγ2): 2.1
hPPAR; Relative activity α (human PPARα): 16.0

Structure (SMILES): CCCCCCCCN(CCCCOc1ccccc1C(=O)O)c1nc2ccccc2o1 [Example 50, 2-[4-[N-(Benzoxazol-2-yl)-N-n-octyl]aminobutoxy]benzoic acid]
hPPAR; Relative activity δ (human PPARδ): 0.1
hPPAR; Relative activity γ (human PPARγ2): 2.9
hPPAR; Relative activity α (human PPARα): 13.3

Structure (SMILES): O=C(O)c1ccccc1OCCCCN(CCCOc1ccccc1)c1nc2ccccc2o1 [Example 53, 2-[4-[N-(Benzoxazol-2-yl)-N-3-phenoxypropyl]aminobutoxy]benzoic acid]
hPPAR; Relative activity δ (human PPARδ): 0.1
hPPAR; Relative activity γ (human PPARγ2): 3.5
hPPAR; Relative activity α (human PPARα): 16.0

Structure (SMILES): CCCCCN(CCCCOc1cccc(C(=O)O)c1)c1nc2ccccc2o1 [Example 47, 3-[4-[N-(Benzoxazol-2-yl)-N-n-pentyl]aminobutoxy]benzoic acid]
hPPAR; Relative activity δ (human PPARδ): 0.3
hPPAR; Relative activity γ (human PPARγ2): 1.2
hPPAR; Relative activity α (human PPARα): 10.4
